Data as given in patent publication US7803792B2, “Quaternary ammonium compounds” (Asahi Kasei Pharma Corporation, priority 2002, dated 2010).

How the values were obtained:
[1] = tested on: Rat model loaded with high cholesterol diet; experiment: Blood cholesterol lowering effect in rats fed on a high cholesterol diet (Test Example 1); assay type: in vivo; conditions: treatment model; 0.3 mg/kg at a time, oral twice a day; control group = 100%
Procedure: Blood Cholesterol Lowering Effect in Rats Fed on a High Cholesterol Diet
In this test example, blood cholesterol level lowering effect in rats fed on a high cholesterol diet was tested according to the method described in J. Lipid, Res., 1995, 36, 1098-1105.
That is, a diet containing 0.4% cholesterol and 0.5% of bile acid was given to 7 to 9 weeks old SD (IGS) male rats for 5 days before the test to increase the blood cholesterol level. […] Cholestimide (trade name: CHOLEBINE GRANULE 70% manufactured by MITSUBISHI TOKYO PHARMACEUTICALS, INC.), which is an anion exchange resin, was suspended in distilled water while the test compound was either dissolved or suspended in distilled water. These were forcibly orally administered twice a day every day from the day of beginning of the test (each n=8). After 3 hours from the administration of the drug on the last day of the test, a blood sample was taken from a jugular vein pool and serum cholesterol level was measured to study the effect of the test compound. Further, as a control group, a group (n=8) fed on only high cholesterol diet and given distilled water (1 ml/kg) was prepared and the same test procedure was followed. A commercially available kit was used for the measurement of total cholesterol and HDL cholesterol. The value obtained by subtracting an HDL cholesterol value from the total cholesterol value was taken as an LDL+VLDL cholesterol value. Assuming the LDL+VLDL cholesterol value of the control group, for which the test compound was not used, as 100%, the rate of decrease (percentage of decrease) of LDL +VLDL cholesterol value when a fixed amount of the test compound was used, was determined.

[2] = tested on: Cholic acid-loaded rat model; experiment: Bile acid-decreasing effect in portal vein of rats loaded with cholic acid (Test Example 2); assay type: in vivo; conditions: 0.1 mg/kg oral with cholic acid 200 mg/kg; portal vein blood after 2 hours; HCO-60 0.1%
Summary of the method: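 SD (IGS) rats aged 7 to 9 weeks were fasted from the day before testing, then given cholic acid (200 mg/kg) together with the test compound by forced oral dosing. Portal vein blood was drawn 2 hours later, and total serum bile acid was measured with a commercial kit (n=6). The percent decrease was calculated relative to a cholic acid-only control group set at 100%.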

[3] = tested on: steatohepatitis model rats; experiment: Steatohepatitis model, choline-deficient diet (Test Example 15); assay type: in vivo, rat; conditions: 3 mg/kg oral once a day for 2 weeks; n = 4; average ± standard error
Excerpt: In this test example, the steatohepatitis model was examined referring to the method of Okan A., et al. (Dig Dis Sci 47:2389-2397, 2002).
That is, 7 weeks old Wistar rats were fed with a choline-deficient diet (manufactured by Oriental Yeast Co., Ltd.) for 2 weeks to prepare a steatohepatitis model. A suspension of a test compound in an aqueous solution of 0.5% methyl cellulose (manufactured by WAKO PURE CHEMICAL […], LTD.) and an aqueous solution of 0.5% methyl cellulose (manufactured by WAKO PURE CHEMICAL […], LTD.) as a control were orally administered once a day for consecutive 2 weeks. On the day next to the last day of administration, a blood sample was taken from the abdominal aorta and AST (GOT) and ALT (GPT) in the blood were measured by using measuring kits (GOTII-HA TEST WAKO and GPTII-HA TEST WAKO, respectively, the both were manufactured by WAKO PURE CHEMICAL […], LTD.) on an auto analyzer (NITTECH ANALYZER SUPER Z818).

rat IBAT = target: T1, rat IBAT (Rattus norvegicus, UniProt Q62633); experiment: In vitro assay of temporarily expressed rat IBAT transporter using Cos 7 cells (Test Example 8); assay type: cell-based; conditions: Cos 7 cells temporarily expressing rat IBAT; [3H] taurocholate 8 μM, 37° C., 60 minutes
T1 construct: expressed in transfected cells; host or cells: Cos 7
T1 sequence (Q62633 1-348): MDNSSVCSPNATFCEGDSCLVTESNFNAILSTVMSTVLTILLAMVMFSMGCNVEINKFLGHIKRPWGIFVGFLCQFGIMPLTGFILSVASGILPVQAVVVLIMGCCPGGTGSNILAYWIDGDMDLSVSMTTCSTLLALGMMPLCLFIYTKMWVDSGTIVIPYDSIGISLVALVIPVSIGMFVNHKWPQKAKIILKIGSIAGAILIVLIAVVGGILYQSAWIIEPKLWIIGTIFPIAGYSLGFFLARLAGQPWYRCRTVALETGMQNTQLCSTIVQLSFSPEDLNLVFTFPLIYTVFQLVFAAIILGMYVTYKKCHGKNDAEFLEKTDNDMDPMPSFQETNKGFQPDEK
Procedure: In Vitro Assay of Compounds Which Inhibit Temporarily Expressed Human IBAT Transporter or Rat IBAT Transporter Using Cos 7 Cells
In this test example, the in vitro assay of the compounds which inhibit temporarily expressed human IBAT transporter or rat IBAT transporter using Cos cells was carried out according to the method described in Am. J. Physiol., 274, G157-169.
That is, […] Cos 7 were inoculated on a 24-well cell plate. One day later, 0.3 μg per well of cDNA of a human IBAT or a rat IBAT was transfected by using FuGENE6 (manufactured by ROCHE PHARMACEUTICAL CO., LTD.). For the assay, the cells cultured for one day after the transfection were used and the following procedure was followed. The cells were washed once with an assay buffer, Hank's buffer solution containing 25 mM glucose and with 10 mM HEPES (pH 7.4), and then the assay buffer was replaced by an assay buffer to which the test compound was added. After adding [^3H] taurocholate to a final concentration of 8 μM, the cells were incubated at 37° C. for 60 minutes. [^3H] taurocholate was allowed to be incorporated in Cos 7 cells through human IBAT or rat IBAT. The reaction was stopped by washing twice with a buffer prepared by adding 1 mM taurocholate to the assay buffer and lyzing the cells with 0.2M NaOH. Measurement of radioactivity was carried out by introducing the cell lyzate in 4 ml of liquid scintillation cocktail, stirring the mixture well, and then measuring the radioactivity by a scintillation counter.

| SMILES | Rate of decrease (%) of LDL + VLDL [1] [%] | Rate of decrease (%) of bile acid [2] [%] | ALT [3] [IU/L] | AST [3] [IU/L] | IC50 (rat IBAT) [nM] |
| --- | --- | --- | --- | --- | --- |
| CCCCC1(CCCC)CS(=O)(=O)c2ccc(N(C)C)cc2C(c2cccc(NC(=S)Nc3ccc(C[n+]4ccccc4CCC)cc3)c2)N1.[Br-] (centres unmarked) [Example 5408] | 43 | 35 | 149 ± 38 | 103 ± 45 |  |
| C#CC[N+](C)(Cc1ccccc1)Cc1ccc(NC(=S)Nc2cccc(C3NC(CCCC)(CCCC)CS(=O)(=O)c4ccc(N(C)C)cc43)c2)cc1 (centres unmarked) [Example 3448] | 20 | 25 | 143 ± 79 | 134 ± 23 |  |
| CCCCC1(CCCC)CS(=O)(=O)c2ccc(N(C)C)cc2C(c2cccc(NC(=S)Nc3ccc(C[N+]45CCC(c6ccccc6)(CC4)CC5)cc3)c2)N1.[Br-] (centres unmarked) [Example 3696] | 25 | 13 | 145 ± 34 | 98 ± 23 |  |
| CCCCC1(CCCC)CS(=O)(=O)c2ccc(N(C)C)cc2C(c2cccc(NC(=S)Nc3ccc(C[N+](C)(C)Cc4ccccc4)cc3)c2)N1.[Br-] (centres unmarked) [Example 3440] | 36 | 26 | 167 ± 93 | 125 ± 34 | 10 |
| CCCCC1(CCCC)CS(=O)(=O)c2ccc(N(C)C)cc2C(c2cccc(NC(=S)CCCCC[N+]34CCC(CC3)CC4)c2)N1.[Br-] (centres unmarked) [Example 1, 1-{5-[3-(3,3-Dibutyl-7-dimethylamino-1,1-dioxo-2,3,4,5-tetrahydro-1,4-benzothiazepin-5-yl)phenylthiocarbamoyl]pentyl}-1-azoniabicyclo[2.2.2]octane bromide] | 49 |  |  |  | 7 |
| CCCCC1(CCCC)CS(=O)(=O)c2ccc(N(C)C)cc2C(c2cccc(NC(=S)Nc3ccc(C[n+]4cccc(CCC(=O)OC)c4)cc3)c2)N1.[Br-] (centres unmarked) [Example 3752] | 50 | 42 | 88 ± 45 | 69 ± 98 |  |
| CCCCC1(CCCC)CS(=O)(=O)c2ccc(N(C)C)cc2C(c2cccc(NC(=S)Nc3ccc(C[n+]4cccc(CCCO)c4)cc3)c2)N1.[Br-] (centres unmarked) [Example 3747] | 48 | 40 | 102 ± 50 | 63 ± 86 |  |
| CCCCC1(CCCC)CS(=O)(=O)c2ccc(N(C)C)cc2C(c2cccc(NC(=S)Nc3ccc(C[N+]4(Cc5ccccc5)CCC(O)CC4)cc3)c2)N1.[Br-] (centres unmarked) [Example 3605] | 28 | 24 | 121 ± 36 | 80 ± 34 |  |
| CCCCC1(CCCC)CS(=O)(=O)c2ccc(N(C)C)cc2C(c2cccc(NC(=S)Nc3ccc(C[n+]4ccc(C(C)(C)C)cc4)cc3)c2)N1.[Br-] (centres unmarked) [Example 3713] | 41 | 32 | 118 ± 36 | 77 ± 37 |  |
